Results reported in ChEMBL document CHEMBL1125282, “Evaluation of desferrithiocin and its synthetic analogues as orally effective iron chelators” (1991).

Assays:
Format in all cases: functional
Rattus norvegicus [1] = test: Total iron output induced by the compound (oral administration) and bile duct cannulated rat and the drug-promoted iron excretion was monitored in the bile at 18 h
Rattus norvegicus [2] = test: Total iron output induced by the compound (oral administration) and bile duct cannulated rat and the drug-promoted iron excretion was monitored in the bile at 12 hr
Rattus norvegicus [3] = test: Total iron output induced by the compound (oral administration) and bile duct cannulated rat and the drug-promoted iron excretion was monitored in the urine at 24 hr
Rattus norvegicus [4] = test: Total iron output induced by the compound (oral administration) and bile duct cannulated rat and the drug-promoted iron excretion was monitored in the bile at 9 h
Rattus norvegicus [5] = test: Total iron output induced by the compound (oral administration) and bile duct cannulated rat and the drug-promoted iron excretion was monitored in the bile at 21 hr; also: test concentration or dose not given here
Rattus norvegicus [6] = test: Total iron output induced by the compound (oral administration) and bile duct cannulated rat and the drug-promoted iron excretion was monitored in the bile at 15 hr; also: test concentration or dose not given here
Rattus norvegicus [7] = test: Total iron output induced by the compound (oral administration) and bile duct cannulated rat and the drug-promoted iron excretion was monitored in the bile at 24 hr
Rattus norvegicus [8] = test: Total iron output induced by the compound (oral administration) and bile duct cannulated rat and the drug-promoted iron excretion was monitored in the bile at 3h; also: test concentration or dose not given here
Rattus norvegicus [9] = test: Total iron output induced by the compound (oral administration) and bile duct cannulated rat and the drug-promoted iron excretion was monitored in the bile at 6 hr; also: test concentration or dose not given here
Rattus norvegicus [10] = test: Total iron output induced by the compound (sc administration) and bile duct cannulated rat and the drug-promoted iron excretion was monitored in the bile at 12 hr
Rattus norvegicus [11] = test: Total iron output induced by the compound (sc administration) and bile duct cannulated rat and the drug-promoted iron excretion was monitored in the bile at 3h
Rattus norvegicus [12] = test: Total iron output induced by the compound (sc administration) and bile duct cannulated rat and the drug-promoted iron excretion was monitored in the urine at 24 hr
Rattus norvegicus [13] = test: Total iron output induced by the compound (sc administration) and bile duct cannulated rat and the drug-promoted iron excretion was monitored in the bile at 9 h
Rattus norvegicus [14] = test: Total iron output induced by the compound (sc administration) and bile duct cannulated rat and the drug-promoted iron excretion was monitored in the bile at 6 hr
Rattus norvegicus [15] = test: Total iron output induced by the compound (sc administration) and bile duct cannulated rat and the drug-promoted iron excretion was monitored in the bile at 15 hr
Rattus norvegicus [16] = test: Total iron output induced by the compound (sc administration) and bile duct cannulated rat and the drug-promoted iron excretion was monitored in the bile at 21 hr
Rattus norvegicus [17] = test: Total iron output induced by the compound (sc administration) and bile duct cannulated rat and the drug-promoted iron excretion was monitored in the bile at 18 h
Rattus norvegicus [18] = test: Total iron output induced by the compound (sc administration) and bile duct cannulated rat and the drug-promoted iron excretion was monitored in the bile at 24 hr

Row | Compound | Total iron output (Rattus norvegicus [1]) | Total iron output (Rattus norvegicus [2]) | Total iron output (Rattus norvegicus [3]) | Total iron output (Rattus norvegicus [4]) | Total iron output (Rattus norvegicus [5]) | Total iron output (Rattus norvegicus [6]) | Total iron output (Rattus norvegicus [7]) | Total iron output (Rattus norvegicus [8]) | Total iron output (Rattus norvegicus [9]) | Total iron output (Rattus norvegicus [10]) | Total iron output (Rattus norvegicus [11]) | Total iron output (Rattus norvegicus [12]) | Total iron output (Rattus norvegicus [13]) | Total iron output (Rattus norvegicus [14]) | Total iron output (Rattus norvegicus [15]) | Total iron output (Rattus norvegicus [16]) | Total iron output (Rattus norvegicus [17]) | Total iron output (Rattus norvegicus [18])
1 | O=C([O-])[C@@H]1CSC(c2ncccc2O)=N1.[Na+] | 65.3 µg/kg | 48.5 µg/kg | 21 µg/kg | 40.7 µg/kg | 74.8 µg/kg | 56.3 µg/kg | 81.9 µg/kg | 9 µg/kg | 28.1 µg/kg | – | – | – | – | – | – | – | – | –
2 | O=C([O-])[C@@H]1CSC(c2ccccc2O)=N1.[Na+] | 226.8 µg/kg | 184.9 µg/kg | 18.67 µg/kg | 143.8 µg/kg | 238.1 µg/kg | 210.6 µg/kg | 246.9 µg/kg | 28.6 µg/kg | 91.6 µg/kg | – | – | – | – | – | – | – | – | –
3 | O=C(O)[C@@H]1CSC(c2ccccn2)=N1 | 56.2 µg/kg | 39.5 µg/kg | 14.2 µg/kg | 31.2 µg/kg | 64.1 µg/kg | 47.1 µg/kg | 71.9 µg/kg | 11.8 µg/kg | 22.5 µg/kg | – | – | – | – | – | – | – | – | –
4 | O=C(O)[C@@H]1CSC(c2ncccc2O)=N1 | 201.3 µg/kg | 182.3 µg/kg | 14.1 µg/kg | 154 µg/kg | 209.6 µg/kg | 194 µg/kg | 217.2 µg/kg | 28.7 µg/kg | 98.2 µg/kg | – | – | – | – | – | – | – | – | –
5 | C[C@]1(C(=O)NCCCCNCCCNC(=O)[C@@]2(C)CSC(c3ncccc3O)=N2)CSC(c2ncccc2O)=N1 | 74 µg/kg | 56.6 µg/kg | 18 µg/kg | 45.2 µg/kg | 82.2 µg/kg | 65.8 µg/kg | 92.8 µg/kg | 13.2 µg/kg | 30 µg/kg | – | – | – | – | – | – | – | – | –
6 | COC(=O)[C@H]1N=C(c2ncccc2O)O[C@@H]1C | 49.4 µg/kg | 37.3 µg/kg | 7.6 µg/kg | 20.2 µg/kg | 55.1 µg/kg | 43.7 µg/kg | 60.8 µg/kg | 11.3 µg/kg | 21.3 µg/kg | – | – | – | – | – | – | – | – | –
7 | COC(=O)[C@@H]1CSC(c2ncccc2O)=N1 | 81 µg/kg | 68.7 µg/kg | 18.7 µg/kg | 59.9 µg/kg | 85.3 µg/kg | 74.7 µg/kg | 93.3 µg/kg | 42.9 µg/kg | 53.3 µg/kg | – | – | – | – | – | – | – | – | –
8 | O=C([O-])[C@@H]1CSC(c2ccccn2)=N1.[Na+] | 49.6 µg/kg | 34.9 µg/kg | 11.9 µg/kg | 26.2 µg/kg | 56.8 µg/kg | 42.2 µg/kg | 62.1 µg/kg | 7.1 µg/kg | 16.6 µg/kg | – | – | – | – | – | – | – | – | –
9 | CC(=O)N(O)CCCCCNC(=O)CCC(=O)N(O)CCCCCNC(=O)CCC(=O)N(O)CCCCCN [DEFEROXAMINE] | 119.8 µg/kg | 97.1 µg/kg | 16.5 µg/kg | 76.8 µg/kg | 128.7 µg/kg | 110.8 µg/kg | 135 µg/kg | 14.7 µg/kg | 43.9 µg/kg | 173.9 µg/kg | 43.6 µg/kg | 49.2 µg/kg | 152.8 µg/kg | 105.9 µg/kg | 196.2 µg/kg | 219.8 µg/kg | 210.7 µg/kg | 228.4 µg/kg
10 | C[C@]1(C(=O)[O-])CSC(c2ncccc2O)=N1.[Na+] [DESFERRITHIOCIN SODIUM] | 146.8 µg/kg | 125.8 µg/kg | 38.43 µg/kg | 111.7 µg/kg | 153.2 µg/kg | 135.9 µg/kg | 159.3 µg/kg | 21.8 µg/kg | 70 µg/kg | – | – | – | – | – | – | – | – | –
11 | C[C@]1(C(=O)O)CSC(c2ncccc2O)=N1 [DESFERRITHIOCIN] | 253.7 µg/kg | 234.8 µg/kg | 27 µg/kg | 205.3 µg/kg | 263.1 µg/kg | 245.6 µg/kg | 268.5 µg/kg | 64.5 µg/kg | 143 µg/kg | – | – | – | – | – | – | – | – | –
